Test results published in patent publication US20100173900A1, “Strobilurins for Increasing the Resistance of Plants to Abiotic Stress” (BASF SE, priority 2008, published 2010).

Tests used:
corn plants [1] = assay: Corn behavior under freeze conditions (dead plants); assay type: in vivo; details: seed treatment 5 g a.s./100 kg seed, 3 h at −5 ° C. ten or eleven days after sowing, counted one day after freeze exposure
Protocol: Exposure times and temperatures were selected to show sufficient damage to the plants so that treatment differences could be observed.
Corn seeds were treated with pyraclostrobin (5 g of active substance per 100 kg seed) or with azoxystrobin (5 g of active substance per 100 kg seed). The treatment was effected by means of a HEGE 11 seed treatment apparatus. One day after the treatment, the seeds were sown into pots with sandy loam soil. One part of the corn plants was exposed for 3 h to −5 ° C. ten days after sowing, and the other plants eleven days after sowing. In each case, the number of dead plants was counted one day after the freeze exposure. The results are compiled as mean percentage values (relative to 100% of living plants before exposure to freezing temperatures) in table 3 below.

cotton plants = assay: Cotton behavior under freeze conditions (dead plants); assay type: in vivo; details: 4 h at −5° C. in BBCH growth stage 10, counted three days after freeze exposure
Protocol: Cotton seeds were treated either with pyraclostrobin (20 g of active substance per 100 kg seed) or with azoxystrobin (19 g of active substance per 100 kg seed). The treatment was effected by means of a HEGE 11 seed treatment apparatus. After the treatment, the seeds were sown into pots. When the cotton plants were in the BBCH growth stage 10, they were exposed for 4 h to −5° C. Three days after the freeze exposure, the number of dead plants was counted. The results are compiled as mean percentage values (relative to 100% of living plants before exposure to freezing temperatures) in table 8 below.

corn plants [2] = assay: Emergence behavior of corn after seed treatment, cold and variable temperatures; assay type: in vivo; details: seed treatment 5 g a.s./100 kg seed, 7 days at 10° C., 4 days at 24° C., then 10° C.
Protocol: (§1) The emergence behavior of corn plants the seeds of which had been treated with pyraclostrobin and which were exposed after sowing to cold and variable temperatures was studied following the guidelines for germination testing according to the Association of Official Seed Analysts (AOSA, 2005). For this purpose, corn seeds were treated with pyraclostrobin (5 g active substance per 100 kg seed). The treatment was effected by means of a HEGE 11 seed treatment apparatus. After the treatment, the seeds were sown into sand trays (2×100 seeds per tray). The sand trays were placed in an incubator and submitted to following temperature regimen: 7 days at 10° C.-4 days at 24° C.-then 10 ° C. 9, 10 and 29 days after sowing (=DAP=days after planting), the number of seeds which had given rise to plants was counted. The results are compiled as mean values in table 1. A value of 100% means that all sown seeds have given rise to plants.

canola plants = assay: Canola behavior under freeze conditions (dead plants); assay type: in vivo, canola (oilseed rape); details: seed treatment 10 g a.s./100 kg seed, 1 h at −10° C. in BBCH growth stage 10, counted three days after freeze exposure
Protocol: Canola (oilseed rape) seeds were treated either with pyraclostrobin (10 g of active substance per 100 kg seed) or with trifloxystrobin (10 g of active substance per 100 kg seed). The treatment was effected by means of a HEGE 11 seed treatment apparatus. After the treatment, the seeds were sown into pots. When the canola plants were in the BBCH growth stage 10, they were exposed for 1 h to −10° C. Three days after the freeze exposure, the number of dead plants was counted. The results are compiled as mean percentage values (relative to 100% of living plants before exposure to freezing temperatures) in table 9 below.

sugar beet plants [3] = assay: Sugar beet behavior under freeze conditions (dead plants); assay type: in vivo; details: seed treatment 30 g a.s./100 kg seed
Protocol: Sugar beet seeds were treated with pyraclostrobin (30 g of active substance per 100 kg seed). The treatment was effected by means of a HEGE 11 seed treatment apparatus. After the treatment, the seeds were sown into pots with a sandy loam soil/sand mixture (2:1 v/v; 2 seeds per pot). One part of the sugar beet plants was exposed for 3 h to −5° C. when they were in the BBCH growth stage 10, and the other plants when they were in the BBCH growth stage 11. In each case, the number of dead plants was counted three days after the freeze exposure. The results are compiled as mean percentage values (relative to 100% of living plants before exposure to freezing temperatures) in table 5 below.

corn plants [4] = assay: Plant height (stem length) and root length of corn, cold and variable temperatures; assay type: in vivo; details: seed treatment 5 g a.s./100 kg seed, cold/variable temperature regimen of example 1, 23 days after sowing
Protocol: as §1
23 days after sowing (see example 1) the stem length (=length from the soil line to the meristem) and the root length of the plants was measured. The results are compiled as mean values in table 2 below.

sugar beet plants [5] = assay: Emergence behavior of sugar beet at cold temperature; assay type: in vivo; details: seed treatment 30 g a.s./100 kg seed, kept at 10° C.
Protocol: The emergence behavior of sugar beet plants the seeds of which had been treated with pyraclostrobin and which were exposed after sowing to cold temperatures was studied following the guidelines for germination testing according to the Association of Official Seed Analysts (AOSA, 2005). For this purpose, sugar beet seeds were treated with pyraclostrobin (30 g active substance per 100 kg seed). The treatment was effected by means of a HEGE 11 seed treatment apparatus. After the treatment, the seeds were sown into pots with a sandy loam soil/sand mixture (2:1 v/v; 2 seeds per pot). The pots were placed in an incubator and kept at 10° C. 13, 15, 16, 17 and 20 days after sowing (=DAP=days after planting), the number of seeds which had given rise to plants was counted. The results are compiled as mean values in table 4. A value of 100% means that all sown seeds have given rise to plants.

soybean plants = assay: Soybean behavior under freeze conditions (dead plants); assay type: in vivo; details: seed treatment 5 g a.s./100 kg seed, 3.5 h at −7° C. in BBCH growth stage 9, counted three days after freeze exposure
Protocol: (§2) Soybean seeds were treated with pyraclostrobin (5 g of active substance per 100 kg seed). The treatment was effected by means of a HEGE 11 seed treatment apparatus. After the treatment, the seeds were sown into pots. When the soybean plants were in the BBCH growth stage 9, they were exposed for 3.5 h to −7° C. Three days after the freeze exposure, the number of dead plants was counted. The results are compiled as mean percentage values (relative to 100% of living plants before exposure to freezing temperatures) in table 6 below.

corn plants [6] = assay: Corn field trial under frost conditions, Beaver Crossing; assay type: in vivo; details: 5 g a.s./100 kg seed in addition to Maxim XL and Apron XL
Protocol: For avoiding fungal stress which could give misleading test results especially under cold temperature, all corn seeds were treated with Maxim XL (fludioxonil; 3.5 g of active substance per 100 kg seed) and Apron XL (mefenoxam; 1 g of active substance per 100 kg seed). A part of the seeds was additionally treated with pyraclostrobin (5 g of active substance per 100 kg seed). The treatment was effected by means of a HEGE 11 seed treatment apparatus. The seeds were sown every 5 days starting from Sep. 6, 2007 in 1.75″ deep on clean tilled soil in Beaver Crossing, NE, USA. Frost occurred on Oct. 22/23, 2007 (−0.1° C. for 1 h), Oct. 23/24 (−0.1° C. for 1 h), 2007 and Oct. 24/25, 2007 (0° C. for 1 h, −1.1° C. for 1.5 h and 0° C. for 1 h). 47 days after sowing (=DAP; days after planting), the number emerged plants and their height was assessed. 50 DAP, the extent of dead tissue was assessed. The results are compiled as mean values in table 11 below.

spring wheat plants = assay: Spring wheat behavior under freeze conditions (dead plants); assay type: in vivo; details: seed treatment 5 g a.s./100 kg seed, 2 h at −10° C. in BBCH growth stage 11, counted three days after freeze exposure
Protocol: as §2, with “Spring wheat” for “Soybean”, “spring wheat” for “soybean”, “11,” for “9,”, “2” for “3.5”, “−10°” for “−7°”, “7” for “6”

corn plants [7] = assay: Corn field trial, Burrus Seed Farms; assay type: in vivo; details: 5 g a.s./100 kg seed in addition to Maxim XL and Apron XL, 35 DAP
Protocol: For avoiding fungal stress which could give misleading test results especially under cold temperature, all corn seeds were treated with Maxim XL (fludioxonil; 3.5 g of active substance per 100 kg seed) and Apron XL (mefenoxam; 1 g of active substance per 100 kg seed). A part of the seeds was additionally treated with pyraclostrobin (5 g of active substance per 100 kg seed). The treatment was effected by means of a HEGE 11 seed treatment apparatus. On Sep. 26, 2007, the seeds were sown in Burrus Seed Farms, Illinois, USA. 35 days after sowing (=DAP; days after planting), the number of intact, injured and dead plants was assessed. The results are compiled as mean percentage values (relative to total number of plants=100%) in table 10 below.

## CO/C=C(/C(=O)OC)c1ccccc1Oc1cc(Oc2ccccc2C#N)ncn1 [azoxystrobin]
Corn plants [1]
  Dead plants: 31%
Cotton plants; seed treatment 19 g a.s./100 kg seed
  Dead plants: 24%

## COC(=O)N(OC)c1ccccc1COc1ccn(-c2ccc(Cl)cc2)n1 [pyraclostrobin]
Corn plants [1]
  Dead plants: 36%
Cotton plants; seed treatment 20 g a.s./100 kg seed
  Dead plants: 17%
Corn plants [2]; 9 DAP
  Emergence: 81%
Corn plants [2]; 10 DAP
  Emergence: 97%
Corn plants [2]; 29 DAP
  Emergence: 100%
Canola plants
  Dead plants: 40%
Sugar beet plants [3]; 3 h at −5° C. in BBCH growth stage 10, counted three days after freeze exposure
  Dead plants: 12%
Sugar beet plants [3]; 3 h at −5° C. in BBCH growth stage 11, counted three days after freeze exposure
  Dead plants: 17%
Corn plants [4]
  Root length: 13.3 cm
  Stem length: 11.2 cm
Sugar beet plants [5]; 13 DAP
  Emergence: 23%
Sugar beet plants [5]; 15 DAP
  Emergence: 45%
Sugar beet plants [5]; 16 DAP
  Emergence: 57%
Sugar beet plants [5]; 17 DAP
  Emergence: 73%
Sugar beet plants [5]; 20 DAP
  Emergence: 90%
Soybean plants
  Dead plants: 18%
Corn plants [6]; 47 DAP
  No. of plants emerged: 19
  Plant height: 1.25 inches
Corn plants [6]; 50 DAP
  Dead tissue: 63%
Spring wheat plants
  Dead plants: 18%
Corn plants [7]
  Dead plants: 29%
  Plants with injury: 35%
  Plants with no injury: 34%

## CON=C(C(=O)OC)c1ccccc1CON=C(C)c1cccc(C(F)(F)F)c1 [trifloxystrobin]
Canola plants
  Dead plants: 42%
